The data set in a line: in vivo. The settings on record: female, Sprague Dawley, rat, iv, 0.006 mg.

Experimental: Specifically, LNG pharmacokinetics were evaluated in adult female Sprague Dawley rats (200±12 g) by applying a LNG-loaded microneedle patch to each rat while under isoflurane anesthesia. The rats' dorsal skin was shaved before application of microneedle patches, taking care not to damage skin during shaving.
Plasma was then separated by centrifuging blood samples at 2000 g for 15 minutes at 4° C., and underwent subsequent analysis by enzyme-linked immunosorbent assay (ELISA, Thermo Fisher Scientific) following the manufacturer's instruction to determine LNG concentration.
Pharmacokinetic parameters were calculated using non-compartmental pharmacokinetic analysis. […] Bioavailability of LNG delivered from microneedles was calculated from the ratio of dose-normalized AUC values after microneedle patch administration and intravenous LNG injection.

In turn, `C#C[C@]1(O)CC[C@H]2[C@@H]3CCC4=CC(=O)CC[C@@H]4[C@H]3CC[C@@]21CC` [LNG, levonorgestrel] had an AUC(0-inf) of 17.2 ± 0.3 ng·h/mL, an AUC(0-t) of 17.2 ± 0.3 ng·h/mL and a half-life of 20.7 ± 0.6 h.
